Test results as given in US20250171715A1, “DETERGENT AND CLEANING AGENT CONTAINING ANTIMICROBIAL PEPTIDE” (HENKEL AG & CO. KGAA, priority 2023, published 2025).

Experiments:
[1] = system: Klebsiella pneumoniae ATCC 4352/K2510; type: cell-based; settings: K. pneumoniae; 100 mg/L in water; positive control
Experimental: (§1) The antibacterial activity of the peptides shown in Table 2 was tested at a concentration of 5,000 mg/L in an MPN suspension test (MPN=Most Probable Number) on various microorganisms (Staphylococcus aureus ATCC 6538/[…], initial bacterial count 3.6E±0.6; Klebsiella pneumoniae ATCC 4352/[…], initial bacterial count 6.1E±06). The respective peptide solutions were dissolved in water (control), detergent without enzyme (A) and detergent with enzyme (B) at a concentration of 5,000 mg/L. The MPN suspension test was performed in deep-well microtiter plates (1,000 μl volume per well), each well containing 800 μl application concentration (AWK, prepared in distilled water) with a 1.25-fold concentration of the test substance (final concentration: 5,000 mg/L). In each case, 100 μl of the bacterial suspension was added (final concentration: 1.0E±08 CFU/ml). […] After at least 5 min and a maximum of 30 min inactivation, the number of living test germ cells was determined. […] For evaluation, the growth in the wells, indicated by turbidity of the nutrient broth, was determined visually or using the Tecan reader. The microbicidal activity was calculated using the following formula: RF=K/D or log 10K-log10D, where RF=reduction factor, K=number of CFU/ml without exposure to the product (water control) and D=number of CFU/ml after exposure to the product.

[2] = system: Staphylococcus aureus ATCC 6538/K3212; type: cell-based; settings: S. aureus; 100 mg/L in water; positive control
Experimental: as §1

Benzalkonium chloride
Log reduction, Water [1]: >4.40
Log reduction, Water [2]: >4.65
